Data: publication PMC3412796, “High-Throughput Screening and Rapid Inhibitor Triage Using an Infectious Chimeric Hepatitis C Virus” (PLoS ONE, 2012)
Marks after values point to notes of the source that are not given here.

Columns and labels:
[1] = system: gt 1a/2a-Rluc virus; assay: HCV Core Cellomics ArrayScan assay (HCS); details: 96 h, Huh-7.5 cells, HCV Core Cellomics readout, average ± SD of at least three experiments
Procedure: For compound library screening, infections were performed in 384-well plates by pre-mixing 400 ffu of gt 1a/2a-Rluc virus with 1×10^4 Huh-7.5 cells and dispensing 50 µl on top of 150 nl of compound in DMSO (final 0.3% DMSO) followed by incubation at 37°C. Renilla luciferase activity, reflecting the degree of virus replication, was measured 96 h after infection using the EnduRen reagent (Promega). […] Maximum activity (100% of control) and background were derived from control wells containing DMSO alone or from uninfected wells, respectively. The individual signals in each of the compound test wells were then divided by the averaged control values (wells lacking inhibitor), after background subtraction, and multiplied by 100% to determine percent activity. The corresponding % inhibition values were then calculated by subtracting this value from 100. Dose-response assays were performed in triplicate and average EC50 values (reflecting the concentration at which 50% inhibition of virus replication was achieved) were calculated using XLfit for Excel (ID Business Solutions, Burlington, MA). Cytotoxicity studies were performed in parallel using CellTiter-Glo (Promega). […] The total number of cells per well (Hoechst staining) and infected cells per well (HCV Core) was measured using a Cellomics ArrayScan HCS Reader (Thermo Scientific) and EC50 values calculated as described above. […]

[2] = system: gt 1a/2a-Rluc virus; assay: Multi-cycle virus growth assay, Renilla luciferase readout (HTS); details: for inhibition of luciferase expression: MOI 0.05, EI 1 µM added 16 h post-entry, LY411575 0.5 µM
Procedure: For compound library screening, infections were performed in 384-well plates by pre-mixing 400 ffu of gt 1a/2a-Rluc virus with 1×10^4 Huh-7.5 cells and dispensing 50 µl on top of 150 nl of compound in DMSO (final 0.3% DMSO) followed by incubation at 37°C. Renilla luciferase activity, reflecting the degree of virus replication, was measured 96 h after infection using the EnduRen reagent (Promega). […] Maximum activity (100% of control) and background were derived from control wells containing DMSO alone or from uninfected wells, respectively. The individual signals in each of the compound test wells were then divided by the averaged control values (wells lacking inhibitor), after background subtraction, and multiplied by 100% to determine percent activity. The corresponding % inhibition values were then calculated by subtracting this value from 100. Dose-response assays were performed in triplicate and average EC50 values (reflecting the concentration at which 50% inhibition of virus replication was achieved) were calculated using XLfit for Excel (ID Business Solutions, Burlington, MA). Cytotoxicity studies were performed in parallel using CellTiter-Glo (Promega). For high-content screening, virus and cells were prepared as above and 50 ul was dispensed into black 384 well optics plates (Thermo Scientific). At 96 h post-infection, cells were fixed for 20 min by adding 17 ul of 16% paraformaldehyde (Electron Microscopy Sciences) to achieve 4% final fixative. Cells were washed and permeabilized twice for 10 min each with PBS containing 1% TX-100 and 0.05% Tween-20 (wash buffer) and blocked for 15 min with PBS with 2% BSA (blocking buffer). […] The total number of cells per well (Hoechst staining) and infected cells per well (HCV Core) was measured using a Cellomics ArrayScan HCS Reader (Thermo Scientific) and EC50 values calculated as described above.

[3] = system: gt 1a/2a-Rluc virus; assay: HCVcc infectious virus release assay; details: 2× EC90 of compound, 48 h pi
Procedure: Cells were incubated at 37°C for 48 h and supernatants were collected. Supernatants were clarified by centrifugation, diluted 20 fold and used to infect naïve Huh-7.5 cells in 96 well plates. Renilla luciferase expression was measured in both producer cells and target cells 48 h post-infection as described above.

[4] = system: gt 1a/2a-Rluc virus; assay: HCVcc resistance selection; details: virus cultured at 5× EC50 up to 10 weeks or until resistance observed
Procedure: The gt 1a/2a-Rluc virus was used to infect Huh-7.5 cells and inhibitor was added 12 h post-infection at 5× EC50. Infection was allowed to progress for 96 h and cells were split 1∶1 with naïve Huh-7.5 cells in the presence of inhibitor and cultured for another 96 h. Viral supernatants were passed onto naïve Huh-7.5 cells in the presence of inhibitor and HCVcc replication in the presence of inhibitor was monitored by determining the spread of virus infection, using immunofluorescence (HCV Core), at each passage. Generally, virus stocks were prepared when HCVcc was ≥10-fold resistant relative to wild-type parental virus. The HCV genome was amplified by RT-PCR (Invitrogen), cloned and amino acid changes that arose during inhibitor selection were identified by analysis of the DNA sequence compared to the parent and control passages in the absence of inhibitor.

[5] = system: gt 1a/2a-Rluc virus; assay: Virus foci expansion by HCV Core immunofluorescence; assay type: cell-based, Hepatitis C virus; details: EI 1 µM added 16 h post-entry, LY411575 0.5 µM

IFNα
Cellomics (EC50) [1]: 0.17±0.08 ^b International units per ml | Luciferase (EC50) ([2]; 96 h, Huh-7.5 cells, Renilla luciferase readout, average ± SD of at least three experiments): 0.20±0.04 ^b International units per ml

C[C@H](NC(=O)[C@@H](O)c1cc(F)cc(F)c1)C(=O)N[C@@H]1C(=O)N(C)c2ccccc2-c2ccccc21 [LY411575]
effect on Renilla luciferase expression in producer and target cells [3]: only affected Renilla luciferase expression in target cells | EC50 ([1]; read-out: Cellomics (EC50)): 11 ± 4.1 nM | % inhibition in a 96 h assay ([2]; 384 well, 400 ffu of virus/well and 4,000 Huh7.5 cells (MOI = 0.1), 96 h): > 90% | inhibition of luciferase expression ([2]; 48 h pi): < 20% | inhibition of luciferase expression ([2]; 72 h pi): > 80% | inhibition of luciferase expression ([2]; 96 h pi): > 90% | difference in potency at 96 h vs 48 h pi (multi- vs single-cycle) ([2]; EC50 at 48 h vs 96 h pi): > 200 fold | EC50 ([2]; read-out: Luciferase (EC50), 96 h, Huh-7.5 cells, Renilla luciferase readout, average ± SD of at least three experiments): 10 ± 3.3 nM | Fold Resistance [4]: did not select for resistance through ten weeks of culture and None | size of HCV Core-positive virus foci ([5]; 48 h pi, MOI 0.05, Huh-7.5): 2.0±0.6 mean cells/foci | inhibition of expansion of virus foci ([5]; 96 h pi, MOI 0.05): > 20 fold
